# Results: ChEMBL document CHEMBL3885881, “DrugMatrix”
# Species on record: Rattus norvegicus
# Test: DrugMatrix - Regimen: Daily Repeat
# Type: toxicity, organism-based, Sprague-Dawley
# Parameters: regimen Daily Repeat, gender Male, age 6-8 weeks
# Settings: in vivo, po, route oral GAVAGE, vehicle .5 % CMC; for BASOPHIL / EOSINOPHIL / ERYTHROCYTE COUNT / HEMATOCRIT / HEMOGLOBIN / LEUKOCYTE COUNT / LYMPHOCYTE / MEAN CORPUSCULAR HEMOGLOBIN / MEAN CORPUSCULAR HEMOGLOBIN CONCENTRATION / MEAN CORPUSCULAR VOLUME / MONOCYTE / NEUTROPHIL / PLATELET COUNT: tissue Blood; for ALANINE AMINOTRANSFERASE / ALBUMIN / ALKALINE PHOSPHATASE / ASPARTATE AMINOTRANSFERASE / BLOOD UREA NITROGEN / CHLORIDE / CHOLESTEROL / CREATINE PHOSPHOKINASE / CREATININE / GLUCOSE / PHOSPHORUS / POTASSIUM / SODIUM / TOTAL BILIRUBIN / TOTAL PROTEIN: tissue Plasma
# [1] = 0 mg/kg, 72 h, dose level Control, time 3 day
# [2] = 0 mg/kg, 120 h, dose level Control, time 5 day
# [3] = 150 mg/kg, 72 h, dose level Low, time 3 day
# [4] = 150 mg/kg, 120 h, dose level Low, time 5 day
# [5] = 1500 mg/kg, 72 h, dose level High, time 3 day
# [6] = 1500 mg/kg, 120 h, dose level High, time 5 day
smiles,measurement,setting,value
C#C[C@]1(O)CC[C@H]2[C@@H]3CCC4=CC(=O)CC[C@]4(C)[C@H]3CC[C@@]21C [ETHISTERONE],BASOPHIL,[1],0.68%
same,EOSINOPHIL,[1],0.46%
same,ERYTHROCYTE COUNT,[1],7.15 x10E6/uL
same,HEMATOCRIT,[1],45.44%
same,HEMOGLOBIN,[1],14.1 G/DL
same,LEUKOCYTE COUNT,[1],9.78 x10E3/uL
same,LYMPHOCYTE,[1],84.44%
same,MEAN CORPUSCULAR HEMOGLOBIN,[1],19.72 pg
same,MEAN CORPUSCULAR HEMOGLOBIN CONCENTRATION,[1],31 G/DL
same,MEAN CORPUSCULAR VOLUME,[1],63.66 fL
same,MONOCYTE,[1],2.14%
same,NEUTROPHIL,[1],11.16%
same,PLATELET COUNT,[1],1378.2 x10E3/uL
same,ALANINE AMINOTRANSFERASE,[1],42.33 u/L
same,ALBUMIN,[1],3.8 G/DL
same,ALKALINE PHOSPHATASE,[1],388.17 u/L
same,ASPARTATE AMINOTRANSFERASE,[1],68 u/L
same,BLOOD UREA NITROGEN,[1],16.17 mg/dL
same,CHLORIDE,[1],96.67 MEQ/L
same,CHOLESTEROL,[1],71 mg/dL
same,CREATINE PHOSPHOKINASE,[1],156.17 u/L
same,CREATININE,[1],0.57 mg/dL
same,GLUCOSE,[1],193.67 mg/dL
same,PHOSPHORUS,[1],11.43 mg/dL
same,POTASSIUM,[1],7 MEQ/L
same,SODIUM,[1],140.33 MEQ/L
same,TOTAL BILIRUBIN,[1],0.48 mg/dL
same,TOTAL PROTEIN,[1],6.8 G/DL
same,BASOPHIL,[2],1.47%
same,EOSINOPHIL,[2],1%
same,ERYTHROCYTE COUNT,[2],7.12 x10E6/uL
same,HEMATOCRIT,[2],45.47%
same,HEMOGLOBIN,[2],14.1 G/DL
same,LEUKOCYTE COUNT,[2],11.38 x10E3/uL
same,LYMPHOCYTE,[2],82.57%
same,MEAN CORPUSCULAR HEMOGLOBIN,[2],19.82 pg
same,MEAN CORPUSCULAR HEMOGLOBIN CONCENTRATION,[2],31.02 G/DL
same,MEAN CORPUSCULAR VOLUME,[2],63.88 fL
same,MONOCYTE,[2],2.2%
same,NEUTROPHIL,[2],11.97%
same,PLATELET COUNT,[2],1267 x10E3/uL
same,ALANINE AMINOTRANSFERASE,[2],38 u/L
same,ALBUMIN,[2],3.72 G/DL
same,ALKALINE PHOSPHATASE,[2],391 u/L
same,ASPARTATE AMINOTRANSFERASE,[2],65.83 u/L
same,BLOOD UREA NITROGEN,[2],14.17 mg/dL
same,CHLORIDE,[2],107.67 MEQ/L
same,CHOLESTEROL,[2],61 mg/dL
same,CREATINE PHOSPHOKINASE,[2],148.33 u/L
same,CREATININE,[2],0.57 mg/dL
same,GLUCOSE,[2],177.17 mg/dL
same,PHOSPHORUS,[2],12.07 mg/dL
same,POTASSIUM,[2],7.2 MEQ/L
same,SODIUM,[2],151.5 MEQ/L
same,TOTAL BILIRUBIN,[2],0.58 mg/dL
same,TOTAL PROTEIN,[2],6.72 G/DL
same,BASOPHIL,[3],0.73%
same,EOSINOPHIL,[3],0.33%
same,ERYTHROCYTE COUNT,[3],6.6 x10E6/uL
same,HEMATOCRIT,[3],41.67%
same,HEMOGLOBIN,[3],13.17 G/DL
same,LEUKOCYTE COUNT,[3],10.76 x10E3/uL
same,LYMPHOCYTE,[3],79.57%
same,MEAN CORPUSCULAR HEMOGLOBIN,[3],19.9 pg
same,MEAN CORPUSCULAR HEMOGLOBIN CONCENTRATION,[3],31.57 G/DL
same,MEAN CORPUSCULAR VOLUME,[3],63.13 fL
same,MONOCYTE,[3],3.47%
same,NEUTROPHIL,[3],14.4%
same,PLATELET COUNT,[3],1218.67 x10E3/uL
same,ALANINE AMINOTRANSFERASE,[3],35.67 u/L
same,ALBUMIN,[3],3.57 G/DL
same,ALKALINE PHOSPHATASE,[3],319.33 u/L
same,ASPARTATE AMINOTRANSFERASE,[3],62.67 u/L
same,BLOOD UREA NITROGEN,[3],13.33 mg/dL
same,CHLORIDE,[3],95.33 MEQ/L
same,CHOLESTEROL,[3],60 mg/dL
same,CREATINE PHOSPHOKINASE,[3],132 u/L
same,CREATININE,[3],0.5 mg/dL
same,GLUCOSE,[3],185.33 mg/dL
same,PHOSPHORUS,[3],12.3 mg/dL
same,POTASSIUM,[3],6.3 MEQ/L
same,SODIUM,[3],138.33 MEQ/L
same,TOTAL BILIRUBIN,[3],0.4 mg/dL
same,TOTAL PROTEIN,[3],6.37 G/DL
same,BASOPHIL,[4],0.93%
same,EOSINOPHIL,[4],0.27%
same,ERYTHROCYTE COUNT,[4],7.3 x10E6/uL
same,HEMATOCRIT,[4],45.67%
same,HEMOGLOBIN,[4],14.1 G/DL
same,LEUKOCYTE COUNT,[4],8.86 x10E3/uL
same,LYMPHOCYTE,[4],86.5%
same,MEAN CORPUSCULAR HEMOGLOBIN,[4],19.3 pg
same,MEAN CORPUSCULAR HEMOGLOBIN CONCENTRATION,[4],30.87 G/DL
same,MEAN CORPUSCULAR VOLUME,[4],62.6 fL
same,MONOCYTE,[4],2.7%
same,NEUTROPHIL,[4],8.87%
same,PLATELET COUNT,[4],1265.33 x10E3/uL
same,ALANINE AMINOTRANSFERASE,[4],35.67 u/L
same,ALBUMIN,[4],3.6 G/DL
same,ALKALINE PHOSPHATASE,[4],382.67 u/L
same,ASPARTATE AMINOTRANSFERASE,[4],57.67 u/L
same,BLOOD UREA NITROGEN,[4],14.33 mg/dL
same,CHLORIDE,[4],105.67 MEQ/L
same,CHOLESTEROL,[4],39.67 mg/dL
same,CREATINE PHOSPHOKINASE,[4],113.33 u/L
same,CREATININE,[4],0.57 mg/dL
same,GLUCOSE,[4],167 mg/dL
same,PHOSPHORUS,[4],11.77 mg/dL
same,POTASSIUM,[4],7.4 MEQ/L
same,SODIUM,[4],151 MEQ/L
same,TOTAL BILIRUBIN,[4],0.4 mg/dL
same,TOTAL PROTEIN,[4],6.53 G/DL
same,BASOPHIL,[5],0.3%
same,EOSINOPHIL,[5],0.23%
same,ERYTHROCYTE COUNT,[5],7.32 x10E6/uL
same,HEMATOCRIT,[5],46.8%
same,HEMOGLOBIN,[5],15 G/DL
same,LEUKOCYTE COUNT,[5],13.73 x10E3/uL
same,LYMPHOCYTE,[5],85.93%
same,MEAN CORPUSCULAR HEMOGLOBIN,[5],20.53 pg
same,MEAN CORPUSCULAR HEMOGLOBIN CONCENTRATION,[5],32.13 G/DL
same,MEAN CORPUSCULAR VOLUME,[5],63.97 fL
same,MONOCYTE,[5],2.43%
same,NEUTROPHIL,[5],9.77%
same,PLATELET COUNT,[5],1394 x10E3/uL
same,ALANINE AMINOTRANSFERASE,[5],25.33 u/L
same,ALBUMIN,[5],3.93 G/DL
same,ALKALINE PHOSPHATASE,[5],316.67 u/L
same,ASPARTATE AMINOTRANSFERASE,[5],60.33 u/L
same,BLOOD UREA NITROGEN,[5],13.67 mg/dL
same,CHLORIDE,[5],96 MEQ/L
same,CHOLESTEROL,[5],34 mg/dL
same,CREATINE PHOSPHOKINASE,[5],152 u/L
same,CREATININE,[5],0.43 mg/dL
same,GLUCOSE,[5],166.67 mg/dL
same,PHOSPHORUS,[5],12.2 mg/dL
same,POTASSIUM,[5],6.83 MEQ/L
same,SODIUM,[5],142 MEQ/L
same,TOTAL BILIRUBIN,[5],0.3 mg/dL
same,TOTAL PROTEIN,[5],7.17 G/DL
same,BASOPHIL,[6],0.93%
same,EOSINOPHIL,[6],0.27%
same,ERYTHROCYTE COUNT,[6],7.53 x10E6/uL
same,HEMATOCRIT,[6],48.07%
same,HEMOGLOBIN,[6],14.97 G/DL
same,LEUKOCYTE COUNT,[6],7.76 x10E3/uL
same,LYMPHOCYTE,[6],80.6%
same,MEAN CORPUSCULAR HEMOGLOBIN,[6],19.97 pg
same,MEAN CORPUSCULAR HEMOGLOBIN CONCENTRATION,[6],31.2 G/DL
same,MEAN CORPUSCULAR VOLUME,[6],63.93 fL
same,MONOCYTE,[6],3.3%
same,NEUTROPHIL,[6],13.73%
same,PLATELET COUNT,[6],1362.33 x10E3/uL
same,ALANINE AMINOTRANSFERASE,[6],31.67 u/L
same,ALBUMIN,[6],3.73 G/DL
same,ALKALINE PHOSPHATASE,[6],496 u/L
same,ASPARTATE AMINOTRANSFERASE,[6],57.33 u/L
same,BLOOD UREA NITROGEN,[6],11 mg/dL
same,CHLORIDE,[6],105.67 MEQ/L
same,CHOLESTEROL,[6],35.33 mg/dL
same,CREATINE PHOSPHOKINASE,[6],132.67 u/L
same,CREATININE,[6],0.57 mg/dL
same,GLUCOSE,[6],185.67 mg/dL
same,PHOSPHORUS,[6],13.8 mg/dL
same,POTASSIUM,[6],7.47 MEQ/L
same,SODIUM,[6],151.33 MEQ/L
same,TOTAL BILIRUBIN,[6],0.33 mg/dL
same,TOTAL PROTEIN,[6],6.83 G/DL
